From patent US20160015770A1, “COMPOSITIONS FOR TREATMENT OF RETINAL DETACHMENT” (THE REGENTS OF THE UNIVERSITY OF MICHIGAN, priority 2013, published 2016)

Molecular target: T1, calpain 1 (Mus musculus, UniProt O35350)
T1 construct: endogenous in cells; host or cells: 661W mouse photoreceptor cell line
T1 sequence (O35350 1-713): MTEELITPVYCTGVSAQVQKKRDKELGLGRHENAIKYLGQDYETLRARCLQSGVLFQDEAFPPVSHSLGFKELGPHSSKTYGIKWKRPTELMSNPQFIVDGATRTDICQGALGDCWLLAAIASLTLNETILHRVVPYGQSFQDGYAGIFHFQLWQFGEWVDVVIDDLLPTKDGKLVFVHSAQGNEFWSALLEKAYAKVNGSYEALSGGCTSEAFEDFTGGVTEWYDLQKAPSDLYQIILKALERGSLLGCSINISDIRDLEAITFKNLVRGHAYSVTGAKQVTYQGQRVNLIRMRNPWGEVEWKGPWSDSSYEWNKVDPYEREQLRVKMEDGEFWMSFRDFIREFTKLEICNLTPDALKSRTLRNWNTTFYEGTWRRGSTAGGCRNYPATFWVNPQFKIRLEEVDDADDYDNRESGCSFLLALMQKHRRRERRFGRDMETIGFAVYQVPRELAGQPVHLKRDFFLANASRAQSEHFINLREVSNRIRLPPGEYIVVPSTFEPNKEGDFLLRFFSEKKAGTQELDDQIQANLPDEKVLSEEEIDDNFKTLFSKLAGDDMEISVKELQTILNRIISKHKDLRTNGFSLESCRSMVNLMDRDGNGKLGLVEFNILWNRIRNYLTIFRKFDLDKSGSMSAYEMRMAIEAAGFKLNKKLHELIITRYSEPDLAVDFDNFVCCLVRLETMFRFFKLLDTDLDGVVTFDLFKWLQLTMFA
T1 sequence (O88456 1-268 partner): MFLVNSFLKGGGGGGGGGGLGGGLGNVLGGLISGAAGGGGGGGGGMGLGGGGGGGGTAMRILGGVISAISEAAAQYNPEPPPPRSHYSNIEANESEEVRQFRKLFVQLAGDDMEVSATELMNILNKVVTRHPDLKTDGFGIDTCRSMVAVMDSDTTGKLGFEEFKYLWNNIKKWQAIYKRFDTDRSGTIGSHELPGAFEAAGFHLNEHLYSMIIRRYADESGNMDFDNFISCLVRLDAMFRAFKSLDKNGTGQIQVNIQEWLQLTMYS
Test: Western blot of calpain 1 specific cleaved alpha-spectrin in 661W cells treated with Fas activating antibody
Assay type: cell-based
Details: 24 hours
Procedure: The 661W photoreceptor cell line was generously provided by Dr. Muayyad Al-Ubaidi (Department of Cell Biology, University of Oklahoma Health Sciences Center, Oklahoma City, Okla.). The 661W cell line was maintained in Dulbecco's modified Eagle's medium containing 10% fetal bovine serum, 300 mg/L glutamine, 32 mg/L putrescine, 40 μL/L β-mercaptoethanol, and 40 μg/L of both hydrocortisone 21-hemisuccinate and progesterone. The media also contained penicillin (90 units/mL) and streptomycin (0.09 mg/mL). Cells were grown at 37° C. in a humidified atmosphere of 5% CO2 and 95% air.
Retinas from experimental eyes with detachment (detached portion of retina only) and control eyes without detachment were dissected from the RPE-choroid, homogenized, and lysed in buffer containing 10 mM HEPES (pH 7.6), 0.5% IgEPal, 42 mM KCl, 1 mM phenylmethylsulfonyl fluoride, 1 mM EDTA, 1 mM EGTA, 1 mM dithiothreitol, 5 mM MgCl2, and one tablet of protease inhibitors per 10 mL buffer (Complete Mini; Roche Diagnostics GmbH, Madison, Wis.). 661W cells were plated at 150,000 cells per well in six-well culture dishes in growth media. After 24 hours, the cells were washed one time with warmed PBS solution and then placed in growth media without fetal bovine serum. Depending on experimental conditions, 500 ng/mL Fas activating antibody (BD Biosciences, San Jose, Calif.) and various calpain inhibitors including MDG-28170 (Sigma, St. Louis, Mo.), MG-101 (Sigma, St. Louis, Mo.), calpeptin (Santa Cruz Biotechnology, Santa Cruz, Calif.) or equal volume of DMSO was added. Calpain inhibitors were added 1 hour prior to the addition of Fas activating antibody. The cells were incubated for various lengths of time and then lysed and homogenized in lysis buffer. The homogenates were incubated on ice and centrifuged at 22,000 g at 4° C. for 60 minutes. The protein concentration of the supernatant was then determined (DC Protein Assay kit; Bio-Rad Laboratories, Hercules, Calif.). The protein samples were separated on SDS-polyacrylamide gels (Tris-HCl Ready Gels; Bio-Rad Laboratories). After electrophoretic separation, the proteins were transferred onto polyvinylidene fluoride membranes (Immobilon-P; Millipore, Billerica, Mass.). Membranes were then immunoblotted with antibodies according to the manufacturer's instructions. The following antibodies were used: LC3b (Cell Signaling, Beverly, Mass.), Atg5 (Abgent, San Diego, Calif.), Atg12 (Cell Signaling, Beverly, Mass.), calpain 1 (Cell Signaling, Beverly, Mass.), alpha-spectrin (Santa Cruz Biotechnology, Santa Cruz, Calif.), actin (Sigma, St. Louis, Mo.), and GAPDH (Abcam, Cambridge, Mass.).
After determining calpain 1 levels, it was looked to correlate this with calpain activity. […]

relative size of the effect on cleaved alpha-spectrin among the calpain inhibitors (Fas activating antibody, two concentrations): largest effect | cleaved alpha-spectrin levels (inhibitor added 1 hour before Fas activating antibody, compared to Fas activation alone): decreased
Structure (SMILES): CCCC[C@@H](C=O)NC(=O)[C@H](CC(C)C)NC(=O)OCc1ccccc1 [calpeptin]
